Source: ChEMBL document CHEMBL3885861, “Open TG-GATES”

Species on record: Rattus norvegicus
Test: Open TG-GATES - Regimen: Daily Repeat
Type: toxicity, organism-based, Sprague-Dawley
Parameters: regimen Daily Repeat, gender Male, age 6 weeks
Details: in vivo, iv, 0 mg/kg, route intravenous injection, dose level Control; for APTT / Bas / Eos / Fbg / Hb / Ht / Lym / MCH / MCHC / MCV / Mono / Neu / PT / Plat / RBC / Ret / WBC: tissue Blood; for KIDNEY_L / KIDNEY_R / KIDNEY_TOTAL: tissue Kidney; for LIVER: tissue Liver; for A/G / ALP / ALT / AST / BUN / CRE / Ca / Cl / DBIL / GLC / IP / K / LDH / Na / PL / RALB / TBIL / TC / TG / TP / gamma-GTP: tissue Plasma

NCCBr [BROMOETHANAMINE]
TERMINAL_BW (72 h, time 3 day): 229.6 g | APTT (72 h, time 3 day): 23.7 s | Bas (72 h, time 3 day): 0% | Eos (72 h, time 3 day): 1% | Fbg (72 h, time 3 day): 290.6 mg/dL | Hb (72 h, time 3 day): 13.5 g/dL | Ht (72 h, time 3 day): 39.3% | Lym (72 h, time 3 day): 82.2% | MCH (72 h, time 3 day): 21 pg | MCHC (72 h, time 3 day): 34.4% | MCV (72 h, time 3 day): 61.2 fL | Mono (72 h, time 3 day): 2% | Neu (72 h, time 3 day): 13.6% | PT (72 h, time 3 day): 16.3 s | Plat (72 h, time 3 day): 122.8 x10_4/uL | RBC (72 h, time 3 day): 641.2 x10_4/ul | Ret (72 h, time 3 day): 4.8% | WBC (72 h, time 3 day): 116.1 x10_2/uL | KIDNEY_L (72 h, time 3 day): 1 g | KIDNEY_R (72 h, time 3 day): 1 g | KIDNEY_TOTAL (72 h, time 3 day): 2 g | LIVER (72 h, time 3 day): 10.3 g | A/G (72 h, time 3 day): 1.2 | ALP (72 h, time 3 day): 1818.6 IU/L | ALT (72 h, time 3 day): 45.2 IU/L | AST (72 h, time 3 day): 72.2 IU/L | BUN (72 h, time 3 day): 16 mg/dL | CRE (72 h, time 3 day): 0.2 mg/dL | Ca (72 h, time 3 day): 10.7 mg/dL | Cl (72 h, time 3 day): 106 meq/L | DBIL (72 h, time 3 day): 0 mg/dL | GLC (72 h, time 3 day): 181 mg/dL | IP (72 h, time 3 day): 7.7 mg/dL | K (72 h, time 3 day): 4.7 meq/L | LDH (72 h, time 3 day): 170 IU/L | Na (72 h, time 3 day): 141.4 meq/L | PL (72 h, time 3 day): 132 mg/dL | RALB (72 h, time 3 day): 3 g/dL | TBIL (72 h, time 3 day): 0.006 mg/dL | TC (72 h, time 3 day): 68.4 mg/dL | TG (72 h, time 3 day): 76 mg/dL | TP (72 h, time 3 day): 5.5 g/dL | gamma-GTP (72 h, time 3 day): 1.4 IU/L | TERMINAL_BW ([…], time 7 day): 257 g | TERMINAL_BW ([…], time 14 day): 314.6 g | TERMINAL_BW ([…], time 28 day): 359.9 g | APTT ([…], time 7 day): 23.2 s | Bas ([…], time 7 day): 0% | Eos ([…], time 7 day): 1% | Fbg ([…], time 7 day): 288.8 mg/dL | Hb ([…], time 7 day): 13.7 g/dL | Ht ([…], time 7 day): 39.5% | Lym ([…], time 7 day): 82.8% | MCH ([…], time 7 day): 21 pg | MCHC ([…], time 7 day): 34.6% | MCV ([…], time 7 day): 60.9 fL | Mono ([…], time 7 day): 2.4% | Neu ([…], time 7 day): 13.2% | PT ([…], time 7 day): 15.9 s | Plat ([…], time 7 day): 132.6 x10_4/uL | RBC ([…], time 7 day): 649.4 x10_4/ul | Ret ([…], time 7 day): 4.4% | WBC ([…], time 7 day): 113.7 x10_2/uL | APTT ([…], time 14 day): 23.9 s | Bas ([…], time 14 day): 0% | Eos ([…], time 14 day): 1.2% | Fbg ([…], time 14 day): 301 mg/dL | Hb ([…], time 14 day): 14 g/dL | Ht ([…], time 14 day): 40.1% | Lym ([…], time 14 day): 85% | MCH ([…], time 14 day): 20.6 pg | MCHC ([…], time 14 day): 34.9% | MCV ([…], time 14 day): 59 fL | Mono ([…], time 14 day): 2.2% | Neu ([…], time 14 day): 10.6% | PT ([…], time 14 day): 15.9 s | Plat ([…], time 14 day): 117.9 x10_4/uL | RBC ([…], time 14 day): 680.2 x10_4/ul | Ret ([…], time 14 day): 3.6% | WBC ([…], time 14 day): 89.2 x10_2/uL | APTT ([…], time 28 day): 25.5 s | Bas ([…], time 28 day): 0% | Eos ([…], time 28 day): 1.8% | Fbg ([…], time 28 day): 297 mg/dL | Hb ([…], time 28 day): 15.7 g/dL | Ht ([…], time 28 day): 42.5% | Lym ([…], time 28 day): 84.8% | MCH ([…], time 28 day): 20.6 pg | MCHC ([…], time 28 day): 36.9% | MCV ([…], time 28 day): 55.8 fL | Mono ([…], time 28 day): 2% | Neu ([…], time 28 day): 10.8% | PT ([…], time 28 day): 16.7 s | Plat ([…], time 28 day): 100.6 x10_4/uL | RBC ([…], time 28 day): 762.2 x10_4/ul | Ret ([…], time 28 day): 2.3% | WBC ([…], time 28 day): 126.1 x10_2/uL | KIDNEY_L ([…], time 7 day): 1.1 g | KIDNEY_R ([…], time 7 day): 1.1 g | KIDNEY_TOTAL ([…], time 7 day): 2.2 g | KIDNEY_L ([…], time 14 day): 1.3 g | KIDNEY_R ([…], time 14 day): 1.3 g | KIDNEY_TOTAL ([…], time 14 day): 2.6 g | KIDNEY_L ([…], time 28 day): 1.3 g | KIDNEY_R ([…], time 28 day): 1.4 g | KIDNEY_TOTAL ([…], time 28 day): 2.7 g | LIVER ([…], time 7 day): 11.9 g | LIVER ([…], time 14 day): 13.5 g | LIVER ([…], time 28 day): 13.9 g | A/G ([…], time 7 day): 1.1 | ALP ([…], time 7 day): 1565.4 IU/L | ALT ([…], time 7 day): 39 IU/L | AST ([…], time 7 day): 68.2 IU/L | BUN ([…], time 7 day): 17.6 mg/dL | CRE ([…], time 7 day): 0.2 mg/dL | Ca ([…], time 7 day): 10.7 mg/dL | Cl ([…], time 7 day): 104.6 meq/L | DBIL ([…], time 7 day): 0 mg/dL | GLC ([…], time 7 day): 188.2 mg/dL | IP ([…], time 7 day): 6.9 mg/dL | K ([…], time 7 day): 4.7 meq/L | LDH ([…], time 7 day): 190.6 IU/L | Na ([…], time 7 day): 139.8 meq/L | PL ([…], time 7 day): 138.6 mg/dL | RALB ([…], time 7 day): 2.9 g/dL | TBIL ([…], time 7 day): 0.008 mg/dL | TC ([…], time 7 day): 71.2 mg/dL | TG ([…], time 7 day): 94.8 mg/dL | TP ([…], time 7 day): 5.5 g/dL | gamma-GTP ([…], time 7 day): 2.4 IU/L | A/G ([…], time 14 day): 1.1 | ALP ([…], time 14 day): 1268.2 IU/L | ALT ([…], time 14 day): 42 IU/L | AST ([…], time 14 day): 72.8 IU/L | BUN ([…], time 14 day): 18.4 mg/dL | CRE ([…], time 14 day): 0.2 mg/dL | Ca ([…], time 14 day): 10.9 mg/dL | Cl ([…], time 14 day): 106 meq/L | DBIL ([…], time 14 day): 0 mg/dL | GLC ([…], time 14 day): 183.8 mg/dL | IP ([…], time 14 day): 7.4 mg/dL | K ([…], time 14 day): 4.5 meq/L | LDH ([…], time 14 day): 176 IU/L | Na ([…], time 14 day): 143.8 meq/L | PL ([…], time 14 day): 139.2 mg/dL | RALB ([…], time 14 day): 3.1 g/dL | TBIL ([…], time 14 day): 0.004 mg/dL | TC ([…], time 14 day): 71.6 mg/dL | TG ([…], time 14 day): 97.8 mg/dL | TP ([…], time 14 day): 5.8 g/dL | gamma-GTP ([…], time 14 day): 2.4 IU/L | A/G ([…], time 28 day): 1.1 | ALP ([…], time 28 day): 1244.2 IU/L | ALT ([…], time 28 day): 39.2 IU/L | AST ([…], time 28 day): 67.8 IU/L | BUN ([…], time 28 day): 19.6 mg/dL | CRE ([…], time 28 day): 0.2 mg/dL | Ca ([…], time 28 day): 10.4 mg/dL | Cl ([…], time 28 day): 104.4 meq/L | DBIL ([…], time 28 day): 0 mg/dL | GLC ([…], time 28 day): 203.4 mg/dL | IP ([…], time 28 day): 6.4 mg/dL | K ([…], time 28 day): 4.2 meq/L | LDH ([…], time 28 day): 147 IU/L | Na ([…], time 28 day): 144.2 meq/L | PL ([…], time 28 day): 137 mg/dL | RALB ([…], time 28 day): 3.1 g/dL | TBIL ([…], time 28 day): 0.01 mg/dL | TC ([…], time 28 day): 66 mg/dL | TG ([…], time 28 day): 124.4 mg/dL | TP ([…], time 28 day): 6 g/dL | gamma-GTP ([…], time 28 day): 2.8 IU/L
